In patent US20240366487A1, “ANTI-AGING COMPOSITIONS FOR SENSITIVE SKIN” (Baek Clinical Inc., priority 2023, published 2024):

System: skin of human subjects
Experiment: Human Repeat Insult Patch Testing (HRIPT)
Format: in vivo
Conditions: positive control, 71 subjects
Protocol: The study duration was 6 weeks and 71 male and female subjects, ranging in age from 18 to 65, completed the study. Subjects were requested to bathe or wash as usual before arrival at the facility Patches containing the test material were then affixed directly to the skin of the intrascapular regions of the back, to the right or left of the midline and subjects were dismissed with instructions not to wet or expose the test area to direct sunlight. Patches remained in place for 48 hours after the first application. Subjects were instructed not to remove the patches prior to their 48-hour scheduled visit, thereafter, subjects were instructed to remove patches 24 hours after application for the remainder of the study. […] Prior to each reapplication, the test sites were evaluated by trained laboratory personnel. Following a 10-14 day rest period a retest/challenge dose was applied once to a previously unexposed test site. Test sites were evaluated by trained laboratory personnel 48 and 96 hours after application. In the event of a reaction, the area of erythema and edema were measured. Edema is estimated by the evaluation of the skin with respect to the contour of the unaffected normal skin. Subjects were instructed to report any delayed reactions that might occur after the final reading.

## CCCCCCCCCCCCOS(=O)(=O)[O-].[Na+] [1.0% Sodium Lauryl Sulfate Solution, Sodium Lauryl Sulfate]
  subjects with a Grade 1 reaction: 3 subjects
  subjects with a Grade 2 reaction: 1 subject
